Data: patent publication US20030129751A1, “Tissue-engineered organs” (priority 2001, published 2003)

Tested on: neointestine
Test: GLP-2 treatment of rats bearing tissue-engineered small intestine: morphometry and SGLT1 expression
Type: in vivo, rat
Experimental: Neointestinal cysts were engineered by seeding biodegradable polymers with neonatal rat intestinal organoid units. The implantation was also performed with small intestine organoid units that had been labeled with GFP to distinguish and verify engineered tissue from host tissue (FIG. 36). Confirmation of GFP production was obtained by simultaneous in vitro culture of the organoid units. The cysts were matured and anastomosed to the native jejunum of syngenic adult recipients. Histology and surface area calculations were performed, as well as Northern blot and localization analysis of the Na+/glucose cotransporter (SGLT1). GLP-2 treatment augmented the absorptive surface area of engineered intestine […]. Animals were treated with [[…]]GLP-2 (twice daily, 1 μg/g body weight), a long-acting analogue of GLP-2, or vehicle alone (control) for 10 days. Rats were then sacrificed and tissues harvested for analysis. Histological parameters and surface area determinations were done using computer-based morphometry.

[1] = [Gly2]GLP-2 twice daily 1 μg/g body weight, 10 days, mean±S.D.
[2] = [Gly2]GLP-2 twice daily 1 μg/g body weight, 10 days, mean±S.D., p < 0.05

[Gly2]GLP-2 (HGDGSFSDEMNTILDNLAARDFINWLIQTKITD; Glucagon-like peptide 2; UniProt P01275 146-178, looked up, variant A2G) [a long-acting analogue of GLP-2]
SGLT1 mRNA expression in the neointestine (Northern blot, vs vehicle control): two-fold increase
Crypt Width [1]: 63 ± 6 microns
Villus Width [1]: 114 ± 32 microns
Surface Area (mucosal amplification ratio) [2]: 7.3 ± 1.4
Villus Height [2]: 456 ± 23 microns
SGLT1 expression topography (localization analysis): unperturbed
Expansion of absorptive surface area (vs vehicle control, 10 days): 40%
